Structure (SMILES)	melting point
CC(C)CC1N=C(c2ccccc2)c2cc(Cl)ccc2NC1=O (stereo unspecified)	213 °C
CCCC1=Nc2ccccc2CC(c2ccsc2)N1C (stereo unspecified)	44.5 to 46.5 °C
COc1cc(Nc2nc3cccc(-c4ccc(C(=O)N(C)C)cc4)c3o2)cc(OC)c1OC	> 280 °C
COc1ccnc(CC(C)(C)C(=O)O)c1	150 to 151 °C
O=C(Nc1cccc(-n2ccnc2)c1)c1csc(-c2ccccc2)n1	131 to 134 °C
COc1cc(C2CCN(C(=O)C(C)(C)N)CC2)ccc1Nc1ncc2ccc(-c3ccccc3N(C)S(C)(=O)=O)n2n1	92 to 100 °C
Cc1ccc(S(=O)(=O)Nc2cc3c(c(C(=O)O)c2)NCCC3)cc1	251 °C
NCc1ccc2c(c1)ncn2-c1cccc(-c2ccc(F)nc2)c1	141 to 143 °C
NC(=O)c1[nH]c2ccc(C(O)(C(F)(F)F)C(F)(F)F)cc2c1-c1ccccc1	220 to 224 °C
O=C(NCC1Cc2cccc(-c3ccc(C(F)(F)F)cc3)c2O1)OCc1ccccc1 (stereo unspecified)	100 to 102 °C
CCC1CCn2c(nc(-c3ccncn3)cc2=O)N1 (stereo unspecified)	226 to 228 °C
Cn1c(C(F)(F)F)cc(=O)n(Cc2cc(Cl)cc(Cl)c2Cl)c1=O	128 to 130 °C
O=C1CC(c2cccc(-n3ccnn3)c2)=Nc2cc(O)c(-c3ccccc3F)cc2N1	> 250 °C
CC(c1ccc(C(F)(F)F)cc1[N+](=O)[O-])[N+](=O)[O-] (stereo unspecified)	48 °C
C=C(c1cc(F)ccc1OCc1ccc(-c2ccccc2)cc1)n1ccnc1	97 to 98 °C
O=C(Nc1ccccc1)c1nn(-c2cccc(C(F)(F)F)c2)ccc1=O	181 to 182 °C
CN1CCC(c2cccc3ccc(C(=O)NCCCc4ccccc4)cc23)CC1	47 to 50 °C
CCCCCCOc1ccc2nc(-c3ccc(COC(CCCCCC)C(F)(F)F)cc3)sc2c1 (stereo unspecified)	69.1 °C
CC(C)c1[nH]nc2c1C(=O)c1c(NC(=O)NN3CCN(C)CC3)cccc1-2	231 to 233 °C
O=C1CCCc2c1ccc(O)c2CCc1ccccc1	185 to 188 °C

Structure (SMILES)	melting point
COc1ccc2c(Oc3ccc(OCCN4CCCCC4)cc3)c(-c3cccc(O)c3)ccc2c1	170 to 171 °C
O=S1(=O)c2cccc3cccc(c23)N1CCCN1CC=C(c2ccc(Cl)cc2)CC1	111 °C
O=C(c1ccc(CBr)cc1)c1ccc([N+](=O)[O-])cc1	113 °C
Cn1cc(C2CCC(=O)CC2)c2cc(C#N)ccc21	150 to 152 °C
Nc1snc2nc(N3CCCC3)sc12	262 to 264 °C
NC1([C@@H]2CCN(c3ccc4c(=O)c(C(=O)O)cn(C5CC5)c4c3OC(F)F)C2)CC1	206 to 208 °C
CCCCCCn1c(=O)c2c(ncn2CCCCC(C)O)n(C)c1=O (stereo unspecified)	68 to 69 °C
COc1ccc(CC(=Nc2ccccc2)NC(=S)NCCO)cc1	117 to 119 °C
O=c1[nH]c(=O)n(C2OC(CO)C(O)C2F)cc1C=CBr (stereo unspecified)	80 to 83 °C
CC(C)(C)OC(=O)NC1(c2ccccc2)CCN(CCC2(c3ccc(F)c(F)c3)CN(C(=O)c3ccccc3)CCO2)CC1 (stereo unspecified)	107 °C
CC(C)OP(C)(=O)COS(=O)(=O)c1c(Cl)cccc1C(C)C (stereo unspecified)	69.5 to 70.5 °C
COc1cc(N2CCN([C@H]3CC[C@H](c4cn(C)c5ccc(C#N)cc54)CC3)CC2)c2ncccc2c1Cl	215 to 216 °C
CCCCc1ccc(-c2ccc(CCc3ccc(C(F)(F)F)cc3)cc2)cc1	85 °C
CCCCN(CCCC)c1cc(OC)c(C=Cc2cccs2)c(OC)c1	90 °C
CCCc1nc(SC)c(C(O)(C(=O)O)c2ccccc2)n1Cc1ccc(-c2ccccc2S(=O)(=O)NC(=O)NCc2ccccc2)cc1 (stereo unspecified)	170 °C
COP(=O)(Cc1cc(C(C)(C)C)c(O)c(C(C)(C)C)c1)C1CCCCC1 (stereo unspecified)	149 to 150 °C
Cc1cc(C)cc(N2CCN(C(=O)NCC(c3ccccc3)c3ccccc3)CC2)c1	174 to 175 °C
CCCCCCCC(=O)N(C)Cc1cccc(-c2ccc(C=CC(=O)O)s2)c1	102 to 104 °C
Cc1cc(C)cc(C(=O)N(C)[C@H](Cc2ccccc2)C(=O)N[C@@H](Cc2c[nH]c3ccccc23)C(=O)O)c1	91 to 94 °C
COc1cccc2c(Nc3ccc(C(=O)NC4CCN(Cc5ccccc5)CC4)cc3)c(C(=O)NC3CCN(CCc4ccccc4)CC3)cnc12	216 to 220 °C

Structure (SMILES)	melting point
CCCCCCCCCCCCCCCc1cccc(OC)c1	27 to 28 °C
Cc1c(NC(=O)c2ccnc(NCc3ccc(=O)[nH]c3)c2)cccc1C(F)(F)F	196 to 201 °C
COc1ccccc1NC(=O)c1ccc(C#N)cc1	158 to 160 °C
O=C1NC(=O)c2c(Br)c(Sc3ccc(Cl)cc3)c(Sc3ccc(Cl)cc3)c(Br)c21	310 to 315 °C
CCCCCCCN(Cc1ccc(C(C)(C)C)cc1)C(Nc1ccc(-c2ccccc2)cc1)=C1C(=O)COC1=O	190 to 192 °C
COc1ccc(C2Cc3cc(C(F)(F)F)ccc3NC(=O)C2CO)cc1 (stereo unspecified)	190 °C
CC(C)(C)OC(=O)Nc1ccccc1C1Cc2ccccc2N1C(=O)OC(C)(C)C (stereo unspecified)	148 to 150 °C
C[Si](C)(C)N=C(C(=N[Si](C)(C)C)c1ccccc1)c1ccccc1	69 to 70 °C
COc1ccccc1Sc1c(NS(=O)(=O)c2ccc(C(C)(C)C)cc2)nc(CO)nc1OC	152 °C
CCCCC1(N(C)C)CCC(c2[nH]c3ccccc3c2C)(c2[nH]c3ccccc3c2CCN)CC1 (stereo unspecified)	105 to 112 °C
CC(=O)Oc1cc(S(=O)(=O)Oc2ccc(C(=O)c3c(Cc4ccc(Br)cc4)sc(C)c3C)cc2C2CCCC2)ccc1C(=O)O	113 to 114 °C
Brc1ccc2c(ccn2Cc2ccccc2)c1	90 °C
C[C@@H]1C[C@@H]([C@H](CC2CCCCC2)NC(=O)OC(C)(C)C)OC1=O	80 to 82 °C
N#CC1=C(c2ccccc2)CN(c2ccccc2)C1=O	188 to 190 °C
Cc1[nH]cnc1CSCCNC(=S)NC#N	158 to 161 °C
Cc1ccc(C(=O)NCCCN(C)CCCNC(=O)c2ccc(C)c3nc4ccccc4nc23)c2nc3ccccc3nc12	218 to 220 °C
CCN1CCC(NC(=O)c2ccc(NC(C)=O)cc2)N1CC (stereo unspecified)	178 to 180 °C
Cc1cccc(C(=C2CN(C(c3ccccc3)c3ccccc3)C2)S(C)(=O)=O)c1	180 °C
COc1cc(N)c(SCc2ccccc2)cc1OC	86 to 88 °C

The remaining lines, values ahead:

melting point	Structure (SMILES)
226 to 228 °C	NC(=O)c1c(-c2cccc(F)c2)c(Cl)n2c1CNCC2
192 to 193 °C	C[C@@H](n1cnc2ccc(F)cc2c1=O)[C@](O)(Cn1cncn1)c1ccc(F)cc1F
152 to 154 °C	CCCC(=O)Nc1c([N+](=O)[O-])c(C(C)(C)C)nn1-c1c(Cl)cc(C(F)(F)F)cc1Cl
185 °C	CC(=O)Nc1cccnc1NC(=O)C(C)(C)Oc1cccc(Cl)n1
110 to 111 °C	COC1(C)CN(c2ccc([N+](=O)[O-])cc2F)C1
133 to 140 °C	Nc1nc(Cl)cc(-c2ccco2)n1
173 to 175 °C	CCOC(=O)C1=CNC2=C(C(=S)Nc3ccccc3)CCC(C)N2C1=O (stereo unspecified)
173 to 175 °C	CCOc1c(O)nc(-c2ccc(Cl)c(OC)c2F)nc1C(=O)OC
217 to 219 °C	CCOC(=O)c1nc(N)sc1-c1nc2ccc(Cl)cn2c1C
82 to 83 °C	CCc1cc(CNc2cccc3ccccc23)c(OC)nc1C
101 to 102 °C	COCOc1cc(CCCOc2ncccc2CC(=O)O)n(Cc2ccc(Cl)cc2Cl)n1
171 °C	CCNc1nc(N)nc(N)n1
112 to 113 °C	C#CCN(Cc1cc2c(=O)n(C)c(CN(CC)CC)nc2cc1Cl)c1ccc(C(=O)OC(C)(C)C)cc1
159 to 162 °C	CC(O)CC(=O)Nc1c(C(=O)c2ccccc2)[nH]c2cc(Cl)ccc12 (stereo unspecified)
52 to 53 °C	CCOC(=O)CC(=O)c1ccc(Br)c(OC)c1F
214 to 215 °C	COCCOc1cc(N(C)S(=O)(=O)c2cccs2)c2[nH]c(C(N)=O)cc2c1
90 to 91 °C	CCOP(=O)(CCCCc1ccc2ccccc2c1O)OCC
120 to 122 °C	Cc1cnc2c(N)ccc(C)c2c1Cl
174 to 175 °C	Cc1nc(N2CCN(CC3CCCCO3)C2=O)sc1C(=O)NCc1cccnc1 (stereo unspecified)

melting point	Structure (SMILES)
179 to 184 °C	Cc1cccc(-c2[nH]c(C(C)C)nc2-c2cccc(-c3ccc(NS(C)(=O)=O)cc3F)c2)n1
50 to 51 °C	CCN(CC)C(=O)c1cccc(F)c1[Si](C)(C)C(C)(C)C
205 to 207 °C	Cc1cc(C)c2c(n1)N(C(=O)Cl)c1ccccc1N(C)C2=O
101 °C	CC(=O)OC1(c2nc3ccccc3s2)C=CC(=O)C=C1
122 to 126 °C	O=C(NCC12CC3CC(CC(C3)C1)C2)c1cc(-c2ncccc2OCc2nnn[nH]2)ccc1Cl
291 to 293 °C	COc1cc(O)c2c(=O)[nH]c(-c3cc(C)c(O)c(C)c3)nc2c1
189 °C	CCCc1c(CSc2nnc(NC(=O)C(=O)OCC)s2)ccc(C(C)=O)c1O
165 to 167 °C	COc1ccc(C(=O)NCc2c(C=O)cc(C)n2CCNC(C)=O)cc1OC
83 to 86 °C	CSCC(C)(C)NC(=O)c1ccccc1Cl
136 °C	CC(C)CCCC(=O)OC1c2ccccc2C(=O)N1c1ccc2ccc(Br)nc2n1 (stereo unspecified)
144 to 148 °C	CN(Cc1sc2c(=O)c(C(=O)NCc3ccc(Cl)cc3)cn(C)c2c1CN)C[C@@H](O)c1ccccn1
84 to 86 °C	CCOc1cc(C(CS(C)(=O)=O)N2C(=O)c3cccc(CNC(C)=O)c3C2=O)ccc1OC (stereo unspecified)
89 to 91 °C	Cc1cc(Oc2ccc(C(F)(F)F)cc2[N+](=O)[O-])n[nH]1
136 to 138 °C	CC(=O)NC[C@H]1CN(c2ccc(N3CCC(c4noc(C)n4)CC3)c(F)c2)C(=O)O1
207 to 209 °C	CC(=O)c1cc(-c2ccc(S(C)(=O)=O)cc2)n(-c2ccc(F)cc2)n1
38 to 41 °C	CCCCCc1c(C(=O)OCC)oc2cc(OC)ccc12
87 to 90.5 °C	CNC(=O)C(C)(C)n1cc(C)c(-c2ccccc2Cl)n1
295 °C	CCOC(=O)C(=O)Nc1cc(C#N)ccc1O

Reference: a melting point compilation (Tetko et al.; mined from patent text by program, amines drawn as free bases though some values may be those of a salt)
